Experimental data taken from the supplement of paper PMC11451515.

System: P12-Ichikawa
Assay: cell viability relative to DMSO control; higher = less cytotoxic
Settings: 48 h
How it was run: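 Three leukemia lines were tested: NOMO1 and SEM at 500 cells/well and P12-Ichikawa at 1000 cells/well. Each was adapted for at least four passages in each medium and seeded in 5 μl in 1536-well plates, and library compounds in DMSO were pin-dosed from 47 μM to 0.79 nM in 11 threefold steps. After 48 h at 37°C, CellTiter-Glo One luminescence was read. Viability is a percentage relative to DMSO wells on each plate, with cell-free wells as background.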

[1] = HPLM + 10% dialyzed FBS, 0.000781 µM
[2] = HPLM + 10% dialyzed FBS, 0.00234 µM
[3] = HPLM + 10% dialyzed FBS, 0.00702 µM
[4] = HPLM + 10% dialyzed FBS, 0.0211 µM
[5] = HPLM + 10% dialyzed FBS, 0.0632 µM
[6] = HPLM + 10% dialyzed FBS, 0.19 µM
[7] = HPLM + 10% dialyzed FBS, 0.569 µM
[8] = HPLM + 10% dialyzed FBS, 1.71 µM
[9] = HPLM + 10% dialyzed FBS, 5.12 µM
[10] = HPLM + 10% dialyzed FBS, 15.4 µM
[11] = HPLM + 10% dialyzed FBS, 46.1 µM
[12] = RPMI 5 mM glucose + 10% FBS, 0.000781 µM
[13] = RPMI 5 mM glucose + 10% FBS, 0.00234 µM
[14] = RPMI 5 mM glucose + 10% FBS, 0.00702 µM
[15] = RPMI 5 mM glucose + 10% FBS, 0.0211 µM
[16] = RPMI 5 mM glucose + 10% FBS, 0.0632 µM
[17] = RPMI 5 mM glucose + 10% FBS, 0.19 µM
[18] = RPMI 5 mM glucose + 10% FBS, 0.569 µM
[19] = RPMI 5 mM glucose + 10% FBS, 1.71 µM
[20] = RPMI 5 mM glucose + 10% FBS, 5.12 µM
[21] = RPMI 5 mM glucose + 10% FBS, 15.4 µM
[22] = RPMI 5 mM glucose + 10% FBS, 46.1 µM
[23] = RPMI 5 mM glucose + 10% dialyzed FBS, 0.000781 µM
[24] = RPMI 5 mM glucose + 10% dialyzed FBS, 0.00234 µM
[25] = RPMI 5 mM glucose + 10% dialyzed FBS, 0.00702 µM
[26] = RPMI 5 mM glucose + 10% dialyzed FBS, 0.0211 µM
[27] = RPMI 5 mM glucose + 10% dialyzed FBS, 0.0632 µM
[28] = RPMI 5 mM glucose + 10% dialyzed FBS, 0.19 µM
[29] = RPMI 5 mM glucose + 10% dialyzed FBS, 0.569 µM
[30] = RPMI 5 mM glucose + 10% dialyzed FBS, 1.71 µM
[31] = RPMI 5 mM glucose + 10% dialyzed FBS, 5.12 µM
[32] = RPMI 5 mM glucose + 10% dialyzed FBS, 15.4 µM
[33] = RPMI 5 mM glucose + 10% dialyzed FBS, 46.1 µM

c1cc(-c2sc(-c3ccncc3)c(-c3ccncc3)c2-c2ccncc2)ccn1
cell viability [1]: 101%
cell viability [2]: 109%
cell viability [3]: 108%
cell viability [4]: 115%
cell viability [5]: 121%
cell viability [6]: 123%
cell viability [7]: 118%
cell viability [8]: 107%
cell viability [9]: 110%
cell viability [10]: 112%
cell viability [11]: 106%
cell viability [12]: 97.9%
cell viability [13]: 114%
cell viability [14]: 102%
cell viability [15]: 113%
cell viability [16]: 121%
cell viability [17]: 123%
cell viability [18]: 121%
cell viability [19]: 126%
cell viability [20]: 110%
cell viability [21]: 112%
cell viability [22]: 104%
cell viability [23]: 97.3%
cell viability [24]: 111%
cell viability [25]: 109%
cell viability [26]: 117%
cell viability [27]: 115%
cell viability [28]: 120%
cell viability [29]: 124%
cell viability [30]: 118%
cell viability [31]: 111%
cell viability [32]: 113%
cell viability [33]: 98.9%

COc1ccc(-c2c(-c3ccc(O)cc3O)n[nH]c2C)cc1
cell viability [1]: 108%
cell viability [2]: 101%
cell viability [3]: 117%
cell viability [4]: 112%
cell viability [5]: 114%
cell viability [6]: 106%
cell viability [7]: 112%
cell viability [8]: 107%
cell viability [9]: 105%
cell viability [10]: 101%
cell viability [11]: 78.1%
cell viability [12]: 99.8%
cell viability [13]: 105%
cell viability [14]: 105%
cell viability [15]: 100%
cell viability [16]: 110%
cell viability [17]: 106%
cell viability [18]: 105%
cell viability [19]: 112%
cell viability [20]: 102%
cell viability [21]: 95.6%
cell viability [22]: 68.6%
cell viability [23]: 101%
cell viability [24]: 106%
cell viability [25]: 110%
cell viability [26]: 111%
cell viability [27]: 107%
cell viability [28]: 113%
cell viability [29]: 113%
cell viability [30]: 113%
cell viability [31]: 105%
cell viability [32]: 101%
cell viability [33]: 89.5%

CNC(=O)c1cc(Oc2ccc(NC(=O)Nc3cc(C(C)(C)C)nn3-c3ccc4ncccc4c3)c(F)c2)ccn1
cell viability [1]: 111%
cell viability [2]: 120%
cell viability [3]: 124%
cell viability [4]: 128%
cell viability [5]: 139%
cell viability [6]: 134%
cell viability [7]: 132%
cell viability [8]: 131%
cell viability [9]: 134%
cell viability [10]: 139%
cell viability [11]: 125%

CN(C)c1nc(N(C)C)nc(N(C)C)n1
cell viability [1]: 108%
cell viability [2]: 108%
cell viability [3]: 104%
cell viability [4]: 104%
cell viability [5]: 101%
cell viability [6]: 103%
cell viability [7]: 94.4%
cell viability [8]: 94.3%
cell viability [9]: 89.6%
cell viability [10]: 94%
cell viability [11]: 83.5%
cell viability [12]: 103%
cell viability [13]: 100%
cell viability [14]: 98.3%
cell viability [15]: 95.9%
cell viability [16]: 90.5%
cell viability [17]: 93.9%
cell viability [18]: 98.8%
cell viability [19]: 87.2%
cell viability [20]: 87.9%
cell viability [21]: 89.9%
cell viability [22]: 93.2%
cell viability [23]: 90.3%
cell viability [24]: 99.9%
cell viability [25]: 95.5%
cell viability [26]: 99.6%
cell viability [27]: 97.1%
cell viability [28]: 91.6%
cell viability [29]: 91.9%
cell viability [30]: 85%
cell viability [31]: 87.9%
cell viability [32]: 90.7%
cell viability [33]: 86.8%

C[C@@]12OC(=O)[C@@]1(NC(=O)[C@@H]2CCCl)[C@@H](O)[C@H]\3CCC\C=C3
cell viability [1]: 96.4%
cell viability [2]: 100%
cell viability [3]: 104%
cell viability [4]: 107%
cell viability [5]: 109%
cell viability [6]: 74.8%
cell viability [7]: 6.01%
cell viability [8]: 5.06%
cell viability [9]: 3.28%
cell viability [10]: 2.14%
cell viability [11]: 0.616%
cell viability [12]: 97.4%
cell viability [13]: 109%
cell viability [14]: 108%
cell viability [15]: 106%
cell viability [16]: 107%
cell viability [17]: 69.8%
cell viability [18]: 7.03%
cell viability [19]: 4.69%
cell viability [20]: 3.15%
cell viability [21]: 2.13%
cell viability [22]: 0.774%
cell viability [23]: 94%
cell viability [24]: 110%
cell viability [25]: 105%
cell viability [26]: 104%
cell viability [27]: 108%
cell viability [28]: 54.4%
cell viability [29]: 6.75%
cell viability [30]: 4.56%
cell viability [31]: 3.02%
cell viability [32]: 2.27%
cell viability [33]: 0.713%

C[C@@H]1CN(CC(=O)N2CC(C)(C)c3ncc(Cc4ccc(F)cc4)cc32)[C@@H](CN2CCOC[C@H]2C)CN1
cell viability [1]: 102%
cell viability [2]: 113%
cell viability [3]: 81.8%
cell viability [4]: 113%
cell viability [5]: 118%
cell viability [6]: 121%
cell viability [7]: 111%
cell viability [8]: 112%
cell viability [9]: 115%
cell viability [10]: 110%
cell viability [11]: 91.8%
cell viability [12]: 102%
cell viability [13]: 106%
cell viability [14]: 69.7%
cell viability [15]: 118%
cell viability [16]: 118%
cell viability [17]: 132%
cell viability [18]: 114%
cell viability [19]: 128%
cell viability [20]: 125%
cell viability [21]: 116%
cell viability [22]: 98.2%
cell viability [23]: 110%
cell viability [24]: 119%
cell viability [25]: 88.8%
cell viability [26]: 125%
cell viability [27]: 126%
cell viability [28]: 135%
cell viability [29]: 128%
cell viability [30]: 122%
cell viability [31]: 121%
cell viability [32]: 118%
cell viability [33]: 90.8%

Nc1ccc([S+](=O)([O-])Nc2ccccn2)cc1
cell viability [1]: 117%
cell viability [2]: 116%
cell viability [3]: 115%
cell viability [4]: 123%
cell viability [5]: 117%
cell viability [6]: 117%
cell viability [7]: 130%
cell viability [8]: 119%
cell viability [9]: 115%
cell viability [10]: 120%
cell viability [11]: 125%
cell viability [12]: 105%
cell viability [13]: 105%
cell viability [14]: 113%
cell viability [15]: 117%
cell viability [16]: 118%
cell viability [17]: 112%
cell viability [18]: 121%
cell viability [19]: 116%
cell viability [20]: 127%
cell viability [21]: 123%
cell viability [22]: 127%
cell viability [23]: 113%
cell viability [24]: 117%
cell viability [25]: 116%
cell viability [26]: 113%
cell viability [27]: 119%
cell viability [28]: 115%
cell viability [29]: 125%
cell viability [30]: 119%
cell viability [31]: 124%
cell viability [32]: 131%
cell viability [33]: 127%

CCC(CC)[C@H](NC(C)=O)[C@@H]1[C@H](O)[C@@H](C(=O)O)C[C@H]1NC(=N)N
cell viability [1]: 84.6%
cell viability [2]: 86.3%
cell viability [3]: 86.2%
cell viability [4]: 95.4%
cell viability [5]: 102%
cell viability [6]: 84.1%
cell viability [7]: 95.6%
cell viability [8]: 89%
cell viability [9]: 100%
cell viability [10]: 91.4%
cell viability [11]: 101%
cell viability [12]: 85.2%
cell viability [13]: 79.7%
cell viability [14]: 81.5%
cell viability [15]: 86%
cell viability [16]: 84.2%
cell viability [17]: 75.9%
cell viability [18]: 84.8%
cell viability [19]: 85.1%
cell viability [20]: 87.4%
cell viability [21]: 78.1%
cell viability [22]: 86.9%
cell viability [23]: 75.7%
cell viability [24]: 82.1%
cell viability [25]: 81.7%
cell viability [26]: 86.4%
cell viability [27]: 83%
cell viability [28]: 80.5%
cell viability [29]: 77.4%
cell viability [30]: 81.8%
cell viability [31]: 76.5%
cell viability [32]: 82.6%
cell viability [33]: 86.8%
